# In patent US20260325559A1, “Immune Activator Agent” (Oryza Oil & Fat Chemical Co., Ltd., priority 2023, published 2026):
# Columns and labels:
# [1] = tested on: iMylc® cells (immature myeloid cells induced by differentiation from iPS cells), IL-6 production; test: IL-6 production activity in iMylc cells (immature dendritic cells); type: cell-based, human; settings: 20 h, 37 °C, 5% CO2, DMSO 0.1% (v/v), ELISA of culture supernatant, FIG. 1
# Procedure: In this experiment, iMylc® cells (immature myeloid cells induced by differentiation from iPS cells) purchased from Mycen Technologies Inc. were used. These cells were cultured and subjected to evaluation tests using the dedicated maintenance medium for iMylc® cells provided by Mycen Technologies Inc.
# The iMylc® cells were seeded into 96-well plates (1.0×10^4 cells/well/100 μL). After adding 100 μL/well of medium containing the test substance, the cells were incubated for 20 hours at 37 °C under 5% CO2. The final concentration of DMSO was adjusted to 0.1% (v/v). After incubation, the amount of IL-6 produced in the culture supernatant was measured using a commercially available kit (Human IL-6 ELISA MAX™ Deluxe Set, BioLegend) in accordance with the manufacturer's instructions.
# [2] = tested on: CD4-positive helper T cells (human PBMCs cocultured with αMylc® cells); test: Mixed lymphocyte reaction (MLR), helper T cell proliferation induced by αMylc cells; type: cell-based; settings: 10 μM; αMylc cells treated 24 h, MLR coculture 7 days; N=3; FIG. 5
# Procedure: The test was conducted using a mixed lymphocyte reaction (MLR). In this method, αMylc® cells (derived from human peripheral blood) that had shown IL-6 production-promoting activity were treated with GlcCer[d18:2(4E,8Z)/18:0], GlcCer[t18:1(8Z)/20:0], GlcCer[d18:2(4E,8Z)/20:0], or GlcCer[d18:2(4E,8Z)/26:0] at concentrations of 1 or 10 μM for 24 hours.
# During this period, peripheral blood mononuclear cells (PBMCs) isolated from human blood were labeled with the cell membrane-permeable dye carboxyfluorescein diacetate succinimidyl ester (CFDA-SE) by incubation for 7 minutes. After staining, αMylc® cells and PBMCs were mixed at a 1:2 ratio (2×10^4 cells: 4×10^4 cells) and cocultured for 7 days.
# Subsequently, the mean fluorescence intensity (MFI) of CD4 (APC-stained; helper T cell marker) and CFDA (cell proliferation indicator) was quantified by flow cytometry (N=3). In the present MLR assay, the activation index was defined as the proliferation rate of helper T cells, and the gating strategy used in this analysis is shown in FIG. 4.
SMILES,IL-6 production [1],T-cell proliferation rate [2]
CCCCCCCCCCCCCCCCCCCCC(O)C(=O)N[C@@H](CO)[C@H](O)[C@H](O)CCCCCCCCCCCCCC (stereo partly shown) [Cer[t18:0/22:0]],significant activity,–
"CCCCCCCCC/C=C\CC/C=C/[C@@H](O)[C@H](CO[C@@H]1O[C@H](CO)[C@@H](O)[C@H](O)[C@H]1O)NC(=O)[C@H](O)CCCCCCCCCCCCCCCCCCCCCCCC [GlcCer[d18:2(4E,8Z)/26:0]]",significant activity,a significant increase in T-cell proliferation rate
CCCCCCCCC/C=C\CCC[C@@H](O)[C@@H](O)[C@H](CO[C@@H]1OC(CO)[C@@H](O)[C@@H](O)C1O)NC(=O)[C@H](O)CCCCCCCCCCCCCCCCCC (stereo partly shown) [GlcCer[t18:1(8Z)/20:0]],significant activity,–
